Tests used:
Assay in all cases: relative viability (nuclei count vs DMSO), 5 days (fraction); higher = more cells survive
NCI-H441 = system: NCI-H441
Outline: (§1)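 A single step with final 0.05% Triton X-100, 1% formaldehyde and 1 ug/ml Hoechst fixed the cells and stained nuclei 5 days after treatment. Lung cancer cell lines in 1536-well plates had been treated by pin tool the day after seeding with one drug alone or a fixed anchor-drug dose plus five library-drug doses (not always all listed) in √10 steps, and nuclei were counted on 4× images. Relative viability is the ratio of nuclei in treated wells to nuclei in vehicle wells, taken as the median of duplicate plates.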

NCI-H2087 = system: NCI-H2087
Outline: as §1

BEN = system: BEN
Outline: as §1

NCI-H727 = system: NCI-H727
Outline: as §1

NCI-H596 = system: NCI-H596
Outline: as §1

NCI-H2126 = system: NCI-H2126
Outline: as §1

NCI-H522 = system: NCI-H522
Outline: as §1

NCI-H3122 = system: NCI-H3122
Outline: as §1

EMC-BAC-2 = system: EMC-BAC-2
Outline: as §1

NCI-H647 = system: NCI-H647
Outline: as §1

NCI-H2347 = system: NCI-H2347
Outline: as §1

SMILES: CC(=O)O[C@@]12CO[C@@H]1C[C@H](O)[C@@]1(C)C(=O)[C@H](O)C3=C(C)[C@@H](OC(=O)[C@H](O)[C@@H](NC(=O)OC(C)(C)C)c4ccccc4)C[C@@](O)([C@@H](OC(=O)c4ccccc4)[C@H]21)C3(C)C [Docetaxel] + N=C(N)NC(=N)NCCc1ccccc1 [Phenformin] (partner 250 µM)
- relative viability (NCI-H441; first compound 0.0002 µM): 0.833
- relative viability (NCI-H441; first compound 0.000632 µM): 0.889
- relative viability (NCI-H441; first compound 0.002 µM): 0.315
- relative viability (NCI-H441; first compound 0.006325 µM): 0.281
- relative viability (NCI-H441; first compound 0.02 µM): 0.197
- relative viability (NCI-H2087; first compound 0.0002 µM): 0.44
- relative viability (NCI-H2087; first compound 0.000632 µM): 0.38
- relative viability (NCI-H2087; first compound 0.002 µM): 0.152
- relative viability (NCI-H2087; first compound 0.006325 µM): 0.159
- relative viability (NCI-H2087; first compound 0.02 µM): 0.0907
- relative viability (BEN; first compound 0.0002 µM): 0.248
- relative viability (BEN; first compound 0.000632 µM): 0.253
- relative viability (BEN; first compound 0.002 µM): 0.307
- relative viability (BEN; first compound 0.006325 µM): 0.215
- relative viability (BEN; first compound 0.02 µM): 0.194
- relative viability (NCI-H727; first compound 0.0002 µM): 0.49
- relative viability (NCI-H727; first compound 0.000632 µM): 0.601
- relative viability (NCI-H727; first compound 0.002 µM): 0.457
- relative viability (NCI-H727; first compound 0.006325 µM): 0.472
- relative viability (NCI-H727; first compound 0.02 µM): 0.354
- relative viability (NCI-H596; first compound 0.0002 µM): 0.827
- relative viability (NCI-H596; first compound 0.000632 µM): 0.773
- relative viability (NCI-H596; first compound 0.002 µM): 0.635
- relative viability (NCI-H596; first compound 0.006325 µM): 0.438
- relative viability (NCI-H596; first compound 0.02 µM): 0.235
- relative viability (NCI-H2126; first compound 0.0002 µM): 0.517
- relative viability (NCI-H2126; first compound 0.000632 µM): 0.468
- relative viability (NCI-H2126; first compound 0.002 µM): 0.297
- relative viability (NCI-H2126; first compound 0.006325 µM): 0.33
- relative viability (NCI-H2126; first compound 0.02 µM): 0.223
- relative viability (NCI-H522; first compound 0.0002 µM): 0.611
- relative viability (NCI-H522; first compound 0.000632 µM): 0.433
- relative viability (NCI-H522; first compound 0.002 µM): 0.527
- relative viability (NCI-H522; first compound 0.006325 µM): 0.55
- relative viability (NCI-H522; first compound 0.02 µM): 0.471
- relative viability (NCI-H3122; first compound 0.0002 µM): 0.368
- relative viability (NCI-H3122; first compound 0.000632 µM): 0.345
- relative viability (NCI-H3122; first compound 0.002 µM): 0.261
- relative viability (NCI-H3122; first compound 0.006325 µM): 0.152
- relative viability (NCI-H3122; first compound 0.02 µM): 0.139
- relative viability (EMC-BAC-2; first compound 0.0002 µM): 0.509
- relative viability (EMC-BAC-2; first compound 0.000632 µM): 0.412
- relative viability (EMC-BAC-2; first compound 0.002 µM): 0.306
- relative viability (EMC-BAC-2; first compound 0.006325 µM): 0.278
- relative viability (EMC-BAC-2; first compound 0.02 µM): 0.177
- relative viability (NCI-H647; first compound 0.0002 µM): 0.329
- relative viability (NCI-H647; first compound 0.000632 µM): 0.322
- relative viability (NCI-H647; first compound 0.002 µM): 0.133
- relative viability (NCI-H647; first compound 0.006325 µM): 0.106
- relative viability (NCI-H647; first compound 0.02 µM): 0.0836
- relative viability (NCI-H2347; first compound 0.0002 µM): 0.496
- relative viability (NCI-H2347; first compound 0.000632 µM): 0.303
- relative viability (NCI-H2347; first compound 0.002 µM): 0.295
- relative viability (NCI-H2347; first compound 0.006325 µM): 0.201
- relative viability (NCI-H2347; first compound 0.02 µM): 0.256

Source: the supplement of paper PMC10307832
